Laboratory results reported in patent US8436043B2 (Takeda Pharmaceutical Company Limited, priority 2008, dated 2013).

Assays:
human glucagon receptor = target: T1, human glucagon receptor (Homo sapiens, UniProt P47871); assay: Glucagon binding inhibitory activity ([125I]-glucagon binding to glucagon receptor membrane protein); details: for IC50: human glucagon receptor membrane protein, [125I]-glucagon, 90 min room temperature; for inhibition at 10 µM: read-out: inhibitory rate (%) at 10 μM
T1 construct: made in house; host or cells: FreeStyle CHO cells, transient transfection with pMSRαneo/hGCGR; membrane fraction (35,000 rpm pellet)
T1 sequence (P47871 26-477): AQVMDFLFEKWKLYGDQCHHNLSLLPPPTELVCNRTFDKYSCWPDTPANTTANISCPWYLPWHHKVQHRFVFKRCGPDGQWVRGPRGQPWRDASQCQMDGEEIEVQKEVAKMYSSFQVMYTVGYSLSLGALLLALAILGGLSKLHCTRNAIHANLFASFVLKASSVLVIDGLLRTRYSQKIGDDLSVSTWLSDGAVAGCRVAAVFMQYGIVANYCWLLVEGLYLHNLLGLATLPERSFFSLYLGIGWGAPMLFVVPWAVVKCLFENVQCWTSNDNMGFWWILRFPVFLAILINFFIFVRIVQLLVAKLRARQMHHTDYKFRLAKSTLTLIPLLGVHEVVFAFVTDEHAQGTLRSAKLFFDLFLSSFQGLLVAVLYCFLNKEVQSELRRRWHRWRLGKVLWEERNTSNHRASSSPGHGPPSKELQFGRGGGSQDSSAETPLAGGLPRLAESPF
Method in brief: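 Receptor source was a membrane fraction of transiently transfected CHO cells bearing human receptor; 90 min room-temperature binding, filtration harvest, scintillation counting.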

[1] = test system: glucagon-induced blood glucose increase; assay: Suppressive action test for glucagon-induced blood glucose increase (rat); type: in vivo; details: SD rats male, 10 mg/kg oral, glucagon 15 μg/kg s.c. 60 min later, blood glucose 20 min after glucagon
Description: Suppressive Action Test for Glucagon-Induced Blood Glucose Increase (Rat)
Full feeding SD rats (male, 7- to 9-week-old) were fasted, 0.5% methylcellulose suspension containing a test compound (10 mg/kg body weight) (compound administration group, 5 rats per group) or 0.5% methylcellulose suspension (compound non-administration group, 12 rats, per group) was orally administered, and 60 min later, glucagon (15 μg/kg body weight, Novo Nordisk Pharma Ltd.) was subcutaneously administered. At 20 min from the glucagon administration, blood samples were collected from the rat tail vein and the blood glucose was measured using a self-testing glucose kit ACCU-CHEK (Roche Diagnostics K.K.). In addition, as a non-treatment group (5 rats per group), the blood glucose of rat (compound non-treatment group) free of glucagon administration was measured in the same manner as above.
The difference between the blood glucose of compound non-administration group or compound administration group and the blood glucose of non-treatment group was calculated. The percentage of “the difference between blood glucose of compound administration group and blood glucose of non-treatment group” was obtained as “blood glucose increase rate (% of control)” where “the difference between blood glucose of compound non-administration group and that of non-treatment group” is 100%.

[2] = test compound 10 μM, 0.4% DMSO = 0%, non-labeled glucagon 1 μM = 100%

Compound	IC50 (human glucagon receptor) [nM]	inhibition at 10 µM (human glucagon receptor; [2]) [%]	blood glucose increasing rate (% of control) [1]	inhibitory rate (%) at 10 μM (human glucagon receptor; [2]) [%]
Cc1c(C(Nc2ccc(C(=O)N(C)CCC(=O)O)cn2)C2CCCCC2)oc2ccc(F)cc12 (single isomer, unassigned) [Example A53, 3-{[(6-{[cyclohexyl(5-fluoro-3-methyl-1-benzofuran-2-yl)methyl]amino}pyridin-3-yl)carbonyl](methyl)amino}propanoic acid]	570	83	27.4 % of control	–
CCC(CC)C(Nc1ccc(C(=O)N(C)CCC(=O)O)cc1)c1oc2ccc(F)cc2c1C (single isomer, unassigned) [Example A73, 3-{[(4-{[2-ethyl-1-(5-fluoro-3-methyl-1-benzofuran-2-yl)butyl]amino}phenyl)carbonyl](methyl)amino}propanoic acid]	900	87	24.2 % of control	–
Cc1c(C(Nc2ccc(C(=O)N(C)CCC(=O)O)cc2)C2CCCCC2)oc2ccc(OC3CCOCC3)cc12 (single isomer, unassigned) [Example A83, 3-[{[4-({cyclohexyl[3-methyl-5-(tetrahydro-2H-pyran-4-yloxy)-1-benzofuran-2-yl]methyl}amino)phenyl]carbonyl}(methyl)amino]propanoic acid]	84	93	43.0 % of control	–
Cc1c(C(Nc2ccc(C(=O)N(C)CCC(=O)O)cc2)C2CCCCC2)oc2ccccc12 (centres unmarked) [Example A41]	–	–	16.6 % of control	86
